For experiment [1], the target named is T1, Muscarinic acetylcholine receptor M2 (Mus musculus, UniProt Q9ERZ4).
T1 sequence (Q9ERZ4 whole entry): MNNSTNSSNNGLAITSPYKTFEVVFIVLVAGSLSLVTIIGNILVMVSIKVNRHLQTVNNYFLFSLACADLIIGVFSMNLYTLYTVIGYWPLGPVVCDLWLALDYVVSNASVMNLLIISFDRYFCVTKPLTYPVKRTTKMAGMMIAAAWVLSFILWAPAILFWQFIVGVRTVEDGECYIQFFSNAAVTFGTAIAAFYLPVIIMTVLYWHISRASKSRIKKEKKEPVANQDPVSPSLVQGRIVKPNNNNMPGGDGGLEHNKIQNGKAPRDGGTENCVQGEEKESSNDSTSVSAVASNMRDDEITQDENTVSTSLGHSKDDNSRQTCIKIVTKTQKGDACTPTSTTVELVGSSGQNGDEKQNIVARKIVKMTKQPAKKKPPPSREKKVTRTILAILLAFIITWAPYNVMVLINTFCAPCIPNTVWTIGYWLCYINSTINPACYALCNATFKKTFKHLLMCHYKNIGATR
Kind of experiment: Ability to displace [3H]oxotremorine ([3H]OXO-M) from mouse cerebral cortex. The format is tissue-based.

Experiment [2] addresses T1, Muscarinic acetylcholine receptor M2. As to the kind of experiment: Ability to displace [3H]methylscopolamine ([3H]NMS) from mouse cerebral cortex. The format is tissue-based.
In experiment [3] the target is T2, Muscarinic acetylcholine receptor M1 (Mus musculus, UniProt P12657).
T2 sequence (P12657 whole entry): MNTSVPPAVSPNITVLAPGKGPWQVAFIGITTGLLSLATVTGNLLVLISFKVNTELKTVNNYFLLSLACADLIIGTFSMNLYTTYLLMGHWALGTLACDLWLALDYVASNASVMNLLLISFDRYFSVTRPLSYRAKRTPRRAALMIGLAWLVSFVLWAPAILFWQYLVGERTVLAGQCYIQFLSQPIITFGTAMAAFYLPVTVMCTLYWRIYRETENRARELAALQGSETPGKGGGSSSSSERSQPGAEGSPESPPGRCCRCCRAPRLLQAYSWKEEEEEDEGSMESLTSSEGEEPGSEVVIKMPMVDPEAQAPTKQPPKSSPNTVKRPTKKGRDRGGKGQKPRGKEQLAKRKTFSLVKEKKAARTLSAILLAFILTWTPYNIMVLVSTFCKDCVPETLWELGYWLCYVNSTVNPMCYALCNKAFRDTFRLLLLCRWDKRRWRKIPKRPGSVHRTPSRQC
As to the kind of experiment: biochemical.
Description: Binding affinity against mouse Muscarinic acetylcholine receptor M1 using cerebral cortex and [3H]pirenzepine

In experiment [4] the target is T3, Acetylcholinesterase (Homo sapiens, UniProt P22303). Kind of experiment: In vitro acetyl cholinesterase (AChE-I) inhibitory activity to determine its ability to reverse the cholinergic deficit characteristic of AD.
The species named for experiment [5] is Rattus norvegicus.
Description: Concentration required to potentiate the contraction of isolated rat ileum produced by 1 x 10 e -7 M Ach by 20 %
The test system of experiment [6] is Mus musculus. As to the kind of experiment: Effect on brain acetylcholine concentration in mice after intraperitoneal administration of 60% lethal dose (102 mg/kg). In kind it is functional.
A further experiment addresses Cholinesterase (Homo sapiens, UniProt P06276).
For experiment [7], the system named is Mus musculus. Kind of experiment: Effect on brain acetylcholine concentration in mice after intraperitoneal administration of 80% lethal dose (140 mg/kg). In kind it is functional.
In experiment [8] the target is T1, Muscarinic acetylcholine receptor M2. Kind of experiment: biochemical.
Experiment [9] concerns the target T2, Muscarinic acetylcholine receptor M1. Kind of experiment: biochemical. This is another data set of the same source.
Description: Binding affinity against mouse muscarinic acetylcholine receptor M1 using cerebral cortex and [3H]pirenzepine
Experiment [10] deals with Cholinesterases; ACHE & BCHE (Homo sapiens) (UniProt P06276+P22303). Kind of experiment: Ratio of IC50(BChE-I) to IC50(AChE-I). In kind it is protein assay.
The target of experiment [11] is T4, Muscarinic acetylcholine receptor M2 (Rattus norvegicus, UniProt P10980).
T4 sequence (P10980 whole entry): T1 sequence (Q9ERZ4 whole entry) with G270V, K316R, R321K, T331A, A336V
Description: Inhibition of [3H]N-methylscopolamine to rat muscarinic acetylcholine receptor M2 from heart tissue

The subject of experiment [12] is Mus musculus. As to the kind of experiment: Effect on brain acetylcholine concentration in mice after intraperitoneal administration of 40% lethal dose (68 mg/kg). In kind it is functional.
For experiment [13], the target named is T1, Muscarinic acetylcholine receptor M2. As to the kind of experiment: biochemical. The source holds these as a separate data set.
The species named for experiment [14] is Rattus norvegicus. As to the kind of experiment: Ratio of IC50 (muscarinic acetylcholine receptor M2) to IC50 (muscarinic acetylcholine receptor M1).
Experiment [15] has as its target T3, Acetylcholinesterase.
Description: In vitro inhibition of human acetylcholinesterase.

Changes are numbered by the printed parent chain.

A word on the Ki: it is the equilibrium dissociation constant of an inhibitor or competing ligand from its target. By IC50 is commonly meant the point on the concentration scale where inhibition reaches its midpoint. A low value points to greater potency in that assay.

T3 sequence (P22303 whole entry): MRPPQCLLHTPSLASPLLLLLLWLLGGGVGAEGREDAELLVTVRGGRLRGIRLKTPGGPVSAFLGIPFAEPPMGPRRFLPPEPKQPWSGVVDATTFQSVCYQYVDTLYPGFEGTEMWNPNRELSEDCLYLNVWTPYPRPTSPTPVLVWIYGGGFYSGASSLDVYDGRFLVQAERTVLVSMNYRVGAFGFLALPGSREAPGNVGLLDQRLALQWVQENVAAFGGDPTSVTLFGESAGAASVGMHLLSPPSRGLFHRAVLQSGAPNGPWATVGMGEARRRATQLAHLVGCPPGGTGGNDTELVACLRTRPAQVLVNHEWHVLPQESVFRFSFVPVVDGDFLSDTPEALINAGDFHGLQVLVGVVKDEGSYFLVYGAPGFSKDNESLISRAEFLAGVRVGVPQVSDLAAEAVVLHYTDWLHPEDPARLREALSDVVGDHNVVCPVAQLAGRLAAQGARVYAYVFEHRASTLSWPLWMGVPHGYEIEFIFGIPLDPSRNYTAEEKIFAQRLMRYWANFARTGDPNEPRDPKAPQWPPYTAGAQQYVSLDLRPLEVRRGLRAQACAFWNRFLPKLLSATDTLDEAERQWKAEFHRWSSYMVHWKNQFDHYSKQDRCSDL
Sequence of Cholinesterase (P06276 whole entry): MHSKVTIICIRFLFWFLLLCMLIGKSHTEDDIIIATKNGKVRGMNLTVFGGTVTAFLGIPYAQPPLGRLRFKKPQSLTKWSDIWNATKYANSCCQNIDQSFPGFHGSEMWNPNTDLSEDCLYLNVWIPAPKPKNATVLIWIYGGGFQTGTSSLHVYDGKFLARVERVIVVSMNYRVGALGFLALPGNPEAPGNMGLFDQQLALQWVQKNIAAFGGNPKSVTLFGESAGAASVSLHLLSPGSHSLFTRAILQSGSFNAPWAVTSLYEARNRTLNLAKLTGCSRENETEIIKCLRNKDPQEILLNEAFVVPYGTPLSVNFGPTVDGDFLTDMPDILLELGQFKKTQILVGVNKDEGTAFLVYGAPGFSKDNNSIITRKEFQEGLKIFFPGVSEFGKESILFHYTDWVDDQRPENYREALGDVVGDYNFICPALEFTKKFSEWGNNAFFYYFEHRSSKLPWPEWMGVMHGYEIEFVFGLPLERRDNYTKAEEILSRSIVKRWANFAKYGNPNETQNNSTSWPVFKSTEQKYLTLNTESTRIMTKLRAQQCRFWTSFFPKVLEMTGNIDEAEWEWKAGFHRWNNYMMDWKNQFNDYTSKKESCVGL
Sequence of Cholinesterases; ACHE & BCHE (Homo sapiens) (P06276 whole entry, looked up): as the sequence (P06276 whole entry) above
Sequence of Cholinesterases; ACHE & BCHE (Homo sapiens) (P22303 whole entry, looked up): as the sequence (P22303 whole entry) above

For the compound `C[N+](C)(C)CCOC(N)=O` [CARBACHOL], the inhibition constant Ki in [1] came to 8 nM; in [2], 66000 nM.
Consider `CN(C)Cc1ccc(CSCCNc2nnccc2[N+](=O)[O-])o1`, for which the IC50 in [3] amounted to 970 nM; against Acetylcholinesterase [4] it was 470 nM. The same compound had an Ileal activity in the experiment listed under Rattus norvegicus [5] of less than 0.1 µM.
Take `CN(C)Cc1ccc(CSCCNc2ccc([N+](=O)[O-])cc2[N+](=O)[O-])o1`: the “% of control” value worked out at 120.4% in the experiment on Mus musculus [6], 128.4% with Mus musculus [7] and 110.8% with Mus musculus [12]. Also, the IC50 on Cholinesterase was 1800 nM; in experiment [9], 1400 nM; in [11] it was 5700 nM; against Acetylcholinesterase [15] it was 200 nM. For the same compound, the Ki is 870 nM in experiment [8] and 12000 nM in [13]. The Ratio in [10] stood at 9.2; in the experiment filed under Rattus norvegicus [14], 4.1. The compound further displayed an Ileal activity in the experiment filed under Rattus norvegicus [5] of less than 0.02 µM.

These data come from ChEMBL document CHEMBL1125532, “Synthesis and cholinergic properties of N-aryl-2-[[[5-[(dimethylamino)methyl]-2-furanyl]methyl]thio]ethylamino analogs of ranitidine” (J Med Chem, 1992).
